Earlier results on three molecules are cited in patent publication US20230106731A1, “INHIBITORS OF MUTANT FAMILY TYROSINE-KINASES” (Spectrum Pharmaceuticals, Inc., priority 2017, published 2023).

One data set has as its system EGFR/HER2 exon 20 mutant. The settings on record: EGFR/HER2 exon 20 mutant patients.
Data set [1] concerns EGFR exon 20 driven NSCLC.

As to `CS(=O)(=O)CCNCc1ccc(-c2ccc3ncnc(Nc4ccc(OCc5cccc(F)c5)c(Cl)c4)c3c2)o1` [lapatinib], the activity in patients entry in the data set with EGFR/HER2 exon 20 mutant is given as “limited activity”.

As to `CCOc1cc2ncc(C#N)c(Nc3ccc(OCc4ccccn4)c(Cl)c3)c2cc1NC(=O)/C=C/CN(C)C` [neratinib], in the data set with EGFR/HER2 exon 20 mutant, the activity in patients entry is recorded as “limited activity”.

As for `C=CC(=O)Nc1cc(Nc2nccc(-c3cn(C)c4ccccc34)n2)c(OC)cc1N(C)CCN(C)C` [osimertinib], in data set [1], the “activity in patient derived xenograft model” value was “minimal activity”.
